Among the data in patent publication US6653478B2, “Substituted benzimidazol-2-ones as vasopressin receptor antagonists and neuropeptide Y modulators” (Ortho-McNeil Pharmaceutical, Inc., priority 2000, dated 2003) are inhibition and IC50 values, retold here.

The target of one assay is T1, NPY2 receptors (Homo sapiens, UniProt P49146).
T1 construct: Cell Membranes from KAN-TS cells having NPY2 receptors; endogenous in cells; host or cells: KAN-TS cells (membranes)
T1 sequence (P49146 1-381): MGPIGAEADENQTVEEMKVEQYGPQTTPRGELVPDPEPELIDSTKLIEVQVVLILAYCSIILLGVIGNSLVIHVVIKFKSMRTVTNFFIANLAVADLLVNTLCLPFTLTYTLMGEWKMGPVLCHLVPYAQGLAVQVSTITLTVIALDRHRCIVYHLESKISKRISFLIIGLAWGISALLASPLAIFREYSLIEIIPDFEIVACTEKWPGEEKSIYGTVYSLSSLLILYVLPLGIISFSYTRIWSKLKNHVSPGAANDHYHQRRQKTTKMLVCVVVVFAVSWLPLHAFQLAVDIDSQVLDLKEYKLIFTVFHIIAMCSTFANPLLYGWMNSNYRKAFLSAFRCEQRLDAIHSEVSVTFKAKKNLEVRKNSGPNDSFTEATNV
Kind of assay: Neuropeptide Y receptor binding assay (125I-PYY, KAN-TS cell membranes). The note with it: 10 μM compound; read-out: NPY-2@10, % Inh. On the procedure: Neuropeptide Y Receptor Binding Assay
Load 96-well RIA racks with RIA vials (Sarstedt, cat. #73.1055)
Prepare membranes—use 2×15 cm confluent plates/96-well assay plate
Add 14 mls Homogenization buffer/cell pellet
Homogenize at high speed for 15 seconds
Transfer to 15 ml conical tube and spin 5′ at 4° C. at setting 3 in RT6000 centrifuge
Transfer supernatant to 30 ml Corex tube
Balance and spin 25′ at 15,000 rpm at 4° C.
Resuspend pellet in 10 mls Binding buffer
Homogenize at high speed for 15 sec.
Bring volume up to 50 mls in Binding buffer (25 mls/2×96-well plates)
Keep on ice until use or freeze in aliquots (2 plates/tube) in −70° C.
Prepare ^125I-PYY (for 2×96-well compound plates)
Dilute 50 uCi ^125I-PYY in 1 ml H2O
Add 0.4 ml 10% BSA to 20 ml Binding buffer
Add 150 μl ^125I-PYY, mix well
NSB (1 μM PYY final conc.): 40 μl PYY (100 μM stock)+60 μl 30% DMSO in HEPES=40 μM PYY—add 5 μl/well
Total Binding: Add 5 μl/well of Compound Diluent
Add 5 μl compound (final conc. @10 μM)
Incubate at R.T. for 1 hr.
Spin plates for 10′ at setting 9 in RT6000 centrifuge
Aspirate supernatant from tubes, add 300 μl PBS and aspirate again.
After plates are washed and aspirated, put individual tubes in 12×75 mm polypropylene carrier tubes. Count on gamma counter.

The target of another assay is human V1a receptor (Homo sapiens, UniProt P37288). Kind of assay: V1a binding assay (3H-AVP displacement, HEK-293 membranes). On the set-up: expressed in transfected cells; host or cells: HEK-293 (membranes). Conditions: for inhibition at 1 µM: 1.0 μM compound, read-out: V1a@1.0, % Inh. A digest of the protocol:
(§1)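 Read-out is filter-retained 3H-AVP, counted by scintillation after washing with cold saline/0.05% Tween 20. Binding ran 1 hour at room temperature in pH 7.5 buffer with protease inhibitors; 1.25 μM unlabelled AVP gave non-specific binding.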

Another assay has as its target T2, human V1b receptor (Homo sapiens, UniProt P47901).
T2 sequence (P47901 1-424): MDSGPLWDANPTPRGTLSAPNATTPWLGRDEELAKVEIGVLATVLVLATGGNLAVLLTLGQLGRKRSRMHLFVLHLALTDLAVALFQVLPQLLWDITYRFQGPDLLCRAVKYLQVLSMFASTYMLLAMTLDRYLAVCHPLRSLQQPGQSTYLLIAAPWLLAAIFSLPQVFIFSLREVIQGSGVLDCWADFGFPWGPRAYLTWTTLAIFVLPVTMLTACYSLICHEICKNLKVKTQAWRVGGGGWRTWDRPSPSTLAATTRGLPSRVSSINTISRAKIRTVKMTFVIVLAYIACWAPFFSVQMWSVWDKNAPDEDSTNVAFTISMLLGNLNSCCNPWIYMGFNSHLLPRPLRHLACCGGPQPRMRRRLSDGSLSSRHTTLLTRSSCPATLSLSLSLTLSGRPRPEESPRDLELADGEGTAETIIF
Kind of assay: V1b binding assay (3H-AVP displacement, HEK-293 membranes). On the set-up: expressed in transfected cells; host or cells: HEK-293 (membranes). The note with it: 10 μM compound; read-out: V1b % Inh @10. The method, boiled down: as §1

A further assay has as its target human V2 receptor (Homo sapiens, UniProt P30518). Briefly: V2 binding assay (3H-AVP displacement, HEK-293 membranes). On the set-up: expressed in transfected cells; host or cells: HEK-293 (membranes). Conditions: 1.0 μM compound; read-out: V2@1.0, % Inh. A digest of the protocol:
as §1

Sequence of human V1a receptor (P37288 whole entry): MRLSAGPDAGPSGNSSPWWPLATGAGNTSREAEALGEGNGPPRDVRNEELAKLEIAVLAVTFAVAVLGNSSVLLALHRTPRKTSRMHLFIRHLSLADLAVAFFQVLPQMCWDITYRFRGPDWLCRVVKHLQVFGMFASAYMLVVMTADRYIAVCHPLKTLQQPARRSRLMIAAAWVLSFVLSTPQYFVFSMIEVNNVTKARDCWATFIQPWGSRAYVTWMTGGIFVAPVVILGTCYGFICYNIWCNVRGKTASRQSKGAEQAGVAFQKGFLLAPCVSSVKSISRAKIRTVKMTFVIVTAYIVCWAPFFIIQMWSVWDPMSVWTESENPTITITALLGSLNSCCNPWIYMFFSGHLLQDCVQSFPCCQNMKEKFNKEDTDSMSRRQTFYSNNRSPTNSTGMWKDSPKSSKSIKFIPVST
Sequence of human V2 receptor (P30518 whole entry): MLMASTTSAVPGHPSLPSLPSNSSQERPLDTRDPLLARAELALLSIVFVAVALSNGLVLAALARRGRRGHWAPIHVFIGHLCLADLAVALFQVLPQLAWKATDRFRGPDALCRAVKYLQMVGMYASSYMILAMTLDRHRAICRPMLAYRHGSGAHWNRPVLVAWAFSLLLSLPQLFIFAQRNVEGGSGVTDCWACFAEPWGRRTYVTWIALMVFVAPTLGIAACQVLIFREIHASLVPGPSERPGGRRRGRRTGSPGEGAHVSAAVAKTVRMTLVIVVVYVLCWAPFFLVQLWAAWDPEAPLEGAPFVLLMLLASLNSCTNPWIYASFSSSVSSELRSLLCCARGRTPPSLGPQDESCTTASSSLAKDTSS

As to `O=c1[nH]c2ccccc2n1C1CCN(C(=S)NCc2ccc(Cl)cc2Cl)CC1` [Compound 17], the inhibition at 10 µM was 15% on NPY2 receptors and 7% at human V1b receptor. In addition, the inhibition at 1 µM came to 12% at human V1a receptor and 14% on human V2 receptor.
In the case of `COc1cccc(CNC(=S)N2CCC(n3c(=O)[nH]c4ccccc43)CC2)c1OC` [Compound 18], the inhibition at 10 µM was 10% at NPY2 receptors and 3% at human V1b receptor. Besides, the values for the inhibition at 1 µM on human V1a receptor and at human V2 receptor were 22% and 9%, respectively.
With `COc1cc(CNC(=S)N2CCC(n3c(=O)[nH]c4ccccc43)CC2)cc(OC)c1OC` [Compound 20], the inhibition at 10 µM at NPY2 receptors is 12%; at human V1a receptor (10 μM compound, read-out: V1a % Inh @10) it was 25%; at human V1b receptor, 0%. Further, on human V2 receptor, the inhibition at 1 µM stood at 0%.
As to `O=c1[nH]c2ccccc2n1C1CCN(C(=S)NCCc2ccccc2)CC1` [Compound 22], the inhibition at 10 µM was found to be 11% on NPY2 receptors and 0% on human V1b receptor. Moreover, the results for the inhibition at 1 µM at human V1a receptor and on human V2 receptor were 45% and 4%, respectively.
Regarding `O=c1[nH]c2ccccc2n1C1CCN(C(=S)NCCc2cccc(Cl)c2)CC1` [Compound 23], the inhibition at 10 µM amounted to 15% on NPY2 receptors and 0% on human V1b receptor. Further, the inhibition at 1 µM stood at 56% on human V1a receptor and 12% on human V2 receptor.
Take `CN(C)c1ccc(CNC(=S)N2CCC(n3c(=O)[nH]c4ccccc43)CC2)cc1` [Compound 24]: the inhibition at 10 µM stood at 12% at NPY2 receptors and 0% on human V1b receptor. Moreover, the inhibition at 1 µM was determined as 19% on human V1a receptor and 9% at human V2 receptor.
For the compound `O=c1[nH]c2ccccc2n1C1CCN(C(=S)NC(c2ccccc2)(c2ccccc2)c2ccccc2)CC1` [Compound 25, 1-[(N1-Piperidinocarbothioyltriphenylmethylamino)-4-yl]-1,3-dihydro-benzimidazol-2-one], the values for the inhibition at 10 µM at NPY2 receptors and on human V1b receptor were 13% and 0%, respectively. Further, the inhibition at 1 µM at human V1a receptor and at human V2 receptor was 0% throughout.
Regarding `O=c1[nH]c2ccccc2n1C1CCN(C(=S)NCCN2CCOCC2)CC1` [Compound 26], the inhibition at 10 µM was 10% on NPY2 receptors and 0% at human V1b receptor. Besides, the inhibition at 1 µM on human V1a receptor is 33%; at human V2 receptor, 20%.
Turning to `CC(NC(=S)N1CCC(n2c(=O)[nH]c3ccccc32)CC1)c1ccc(F)cc1` (stereo not shown) [Compound 27], the figures for the inhibition at 10 µM at NPY2 receptors and at human V1b receptor were 15% and 0%, respectively. For the same compound, the inhibition at 1 µM on human V1a receptor turned out to be 33%; at human V2 receptor, 20%.
The corresponding values for `O=c1[nH]c2ccccc2n1C1CCN(C(=S)NCc2ccc(Cl)cc2)CC1` [Compound 28] are 24%, 3%, 22% and 0%.
As for `O=c1[nH]c2ccccc2n1C1CCN(C(=S)NCc2cccnc2)CC1` [Compound 29], the values for the inhibition at 10 µM on NPY2 receptors and at human V1b receptor were 11% and 0%, respectively. This compound had an IC50 on human V1a receptor of 1900 nM. Moreover, the inhibition at 1 µM on human V2 receptor amounted to 2%.
Consider `CC(Cc1ccc(Cl)cc1)NC(=S)N1CCC(n2c(=O)[nH]c3ccccc32)CC1` (stereo not shown) [Compound 30], for which the inhibition at 10 µM on NPY2 receptors came out at 23%; at human V1b receptor, 0%. The compound also gave an IC50 on human V1a receptor of 390 nM. In addition, the inhibition at 1 µM on human V2 receptor amounted to 9%.
In the case of `O=c1[nH]c2ccccc2n1C1CCN(C(=S)NCCc2ccc([N+](=O)[O-])cc2)CC1` [Compound 31], the figures for the inhibition at 10 µM at NPY2 receptors and on human V1b receptor were 17% and 5%, respectively. In addition, the inhibition at 1 µM is 19% on human V1a receptor and 15% at human V2 receptor.
Consider `O=c1[nH]c2ccccc2n1C1CCN(C(=S)NC(Cc2ccccc2)c2ccccc2)CC1` (stereo not shown) [Compound 32], for which the results for the inhibition at 10 µM at NPY2 receptors and on human V1b receptor were 26% and 4%, respectively. Also, the inhibition at 1 µM turned out to be 42% on human V1a receptor and 9% on human V2 receptor.
For the compound `O=c1[nH]c2ccccc2n1C1CCN(C(=S)NC2c3ccccc3-c3ccccc32)CC1` [Compound 33], the figures for the inhibition at 10 µM at NPY2 receptors and at human V1b receptor were 13% and 9%, respectively. Besides, the inhibition at 1 µM at human V1a receptor is 33%; on human V2 receptor, 0%.
Turning to `O=c1[nH]c2ccccc2n1C1CCN(C(=S)NC(c2ccccc2)c2ccc(Cl)cc2)CC1` (stereo not shown) [Compound 34], the inhibition at 10 µM turned out to be 22% at NPY2 receptors and 13% on human V1b receptor. Further, the inhibition at 1 µM on human V1a receptor was 42%; at human V2 receptor, 21%.
Turning to `CCN(CC)CCn1c(=O)n(C2CCN(C(=S)NC(C)c3ccc(F)cc3)CC2)c2ccccc21` (stereo not shown) [Compound 36, 1-(N1-Piperidinocarbothioyl-(4-fluoro-[…]-methylbenzylamino)-4-yl)-3-(2-diethyaminoethyl)-1,3-dihydrobenzimidazol-2-one], the inhibition at 10 µM worked out at 16% on NPY2 receptors and 20% on human V1b receptor. Also, the inhibition at 1 µM on human V1a receptor came out at 45%; on human V2 receptor it was 0%.
Turning to `O=c1n(Cc2ccccc2)c2ccccc2n1C1CCN(C(=S)NC(c2ccccc2)c2ccccc2)CC1` [Compound 37, 1-(N1-Piperidinocarbothioyldiphenylmethylamino-4-yl)-3-benzyl-1,3-dihydrobenzimidazol benzimidazol-2-one], the results for the inhibition at 10 µM on NPY2 receptors and on human V1b receptor were 0% and 8%, respectively. For the same compound, the inhibition at 1 µM on human V1a receptor was 5%; on human V2 receptor, 2%.
The corresponding values for `O=c1[nH]c2ccccc2n1C1CCN(C(=S)NCCCc2ccccc2)CC1` [Compound 38] are 7%, 0%, 25% and 9%.
Regarding `O=c1n(Cc2ccccc2)c2ccccc2n1C1CCN(C(=S)NCCc2ccc(Cl)cc2)CC1` [Compound 39, 1-(N1-Piperidinocarbothioyl-2-(4-chlorophenyl)ethylamino-4-yl)-3-benzyl-1,3-dihydrobenzimidazol-2-one], the inhibition at 10 µM on NPY2 receptors stood at 18%; on human V1b receptor, 7%. For the same compound, the inhibition at 1 µM on human V1a receptor stood at 17%; at human V2 receptor, 0%.
With `COC(=O)C(Cc1ccccc1)NC(=S)N1CCC(n2c(=O)[nH]c3ccccc32)CC1` (stereo not shown) [Compound 40], the inhibition at 10 µM came to 17% at NPY2 receptors and 11% on human V1b receptor. In addition, the IC50 at human V1a receptor came out at 190 nM. In addition, the inhibition at 1 µM at human V2 receptor came out at 0%.
Take `CCN(CC)CCn1c(=O)n(C2CCN(C(=S)NC(Cc3ccccc3)C(=O)O)CC2)c2ccccc21` [Compound 43, 1-(N1-Piperidinocarbothioyl-(2-phenyl-1-L-carboxy)amino-4-yl)-3-(2-diethyaminoethyl)-1,3-dihydrobenzimidazol-2-one]: the figures for the inhibition at 10 µM at NPY2 receptors and at human V1b receptor were 13% and 16%, respectively. In addition, the inhibition at 1 µM was determined as 39% on human V1a receptor and 10% on human V2 receptor.

As a reminder, the IC50 is the point on the concentration scale where inhibition reaches its midpoint.
